{
  "source": "patent US20250271439A1",
  "about": "“PROTEOMIC SIGNATURE OF PLASMA EXTRACELLULAR VESICLES CLASSIFIES RESPONSE TO DOXORUBICIN AND CANCER” (Washington University, priority 2022, published 2025)",
  "key": {"plasma EV proteome": {"system": "plasma EV proteome", "assay": "Label free quantitative proteomics of plasma EVs before versus after doxorubicin treatment", "type": "in vivo, human", "settings": "SARC021 sarcoma cohort; also considering the patient's treatment sensitivity; FIG. 5A"}, "sarcoma patients": {"system": "sarcoma patients", "assay": "Tumor response to doxorubicin monotherapy assessed by RECIST version 1.1 (SARC021 trial)", "type": "in vivo, human", "settings": "two cycles of 75 mg/m^2 doxorubicin, 6 weeks", "protocol": "Plasma was acquired from a cohort of 40 sarcoma patients on the doxorubicin monotherapy control arm of the international, open-label, prospective, randomized, phase 3, multicenter SARC021 trial (TH CR-406)^16. SARC021 was conducted at 81 academic or community investigational sites across 13 countries, and one arm of the trial treated patients with doxorubicin alone, the standard of care. Samples were obtained from 8 different sarcoma subtypes in the cohort, including angiosarcoma (AS), epitheloid sarcoma (EPI), leiomyosarcoma (LMS), liposarcoma (LS), myxofibrosarcoma (MFS), malignant peripheral nerve sheath tumor (MPNST), rhabdomyosarcoma (PMRMS), and undifferentiated pleomorphic sarcoma (UPS). The number of patients per sarcoma subtype ranged from 1 to 13 (Table 1).\nPlasma for the sarcoma cohort was acquired prior to treatment with two cycles of 75 mg/m^2 doxorubicin, and just prior to cycle 3, for a total treatment time of 6 weeks (FIG. 1A). […]\nDoxorubicin treatment and plasma collection: Plasma was obtained from anonymized sarcoma patients on the TH CR-406/SARC021 clinical trial, registered with ClinicalTrials.gov as NCT01440088 and entitled “A Trial of TH-302 in Combination With Doxorubicin Versus Doxorubicin Alone to Treat Patients With Locally Advanced Unresectable or Metastatic Soft Tissue Sarcoma”^84. […] Tumor response was assessed at the end of cycle 2 using RECIST version 1.1^18. […]"}},
  "data": [
    {"smiles": "COc1cccc2c1C(=O)c1c(O)c3c(c(O)c1C2=O)C[C@@](O)(C(=O)CO)C[C@@H]3O[C@H]1C[C@H](N)[C@H](O)[C@H](C)O1", "note": "[doxorubicin]", "values": [
      {"measurement": "change in EV protein abundance, plasma samples collected before and after treatment", "setting": "plasma EV proteome", "value": "no statistically significant change"},
      {"measurement": "sarcoma patients considered treatment resistant", "setting": "sarcoma patients; cohort of 40 sarcoma patients", "value": 37.5, "unit": "%"},
      {"measurement": "number of sarcoma patients considered treatment resistant", "setting": "sarcoma patients; of 40 sarcoma patients", "value": 15}
    ]}
  ]
}
